{"source": "patent US20230057033A1", "about": "“FLUOROGENIC BETA-LACTAMASE SUBSTRATE AND ASSOCIATED DETECTION METHOD” (MOLSID, priority 2019, published 2023)", "tested_on": "β-lactamase", "assay": "Detection of fluorescence of compound 15 with β-lactamase (microwell plate, plate fluorimeter)", "format": "biochemical", "details": "75 μ, 37° C., 10 U.mL^−1, fluorescence measured over time, FIG. 1", "description": "The fluorescence of compound 15 was evaluated with and without a β-lactamase. The test was performed by incubation/chemical reaction in a microwell plate (75 μ, 37° C., 10 U.mL^−1). The fluorescence was measured over time by a plate fluorimeter."}
{"compound": "O=C(Cc1cccs1)N[C@@H]1C(=O)N2C(C(=O)O)=C(COC(=O)NCC3CCCCN3C(=O)Oc3ccc(Cl)cc3-c3nc4ccc(Cl)cc4c(=O)[nH]3)CS[C@H]12", "note": "(stereo partly shown) [Compound 15]", "values": [{"measurement": "fluorescence generated in the presence of β-lactamase (hydrolysis, fragmentation and release of ELF 97)", "result": "intense fluorescence"}]}
